Assay results: patent publication US12422427B2, “Compounds for treatment of diseases and methods of screening therefor” (Max-Planck-Gesellschaft zur Förderung der Wissenschaften …, priority 2018, dated 2025)

Assays:
[1] = Stability of lipoamide in growth medium by NMR signal of the trans-amide proton; assay type: physicochemical
Experimental: Integrated NMR signal intensity is proportional to concentration, provided conditions (including ionic strength, buffer composition, temperature and pH) are identical^73. Chemical exchange^74, expected as the amide protons in lipoamide should be labile in water, must also be accounted for. To ensure appropriate conditions were selected, (^15N) ^1H NMR spectra were obtained in different solvents (Chloroform-d, H2O, culture medium, medium with 3 mM KAsO2 and a 50:50 mixture of medium with 3 mM KAsO2 and EDTA-trypsin) (FIGS. 13B-13C). […] To determine temperature and pH sensitivity of the trans-amide proton signal (^15N) ^1H spectra of 1 mM lipoamide in medium were acquired at different temperatures (FIG. 13D) and pH (FIG. 13E). […] To determine whether lipoamide degrades over time the signal from the trans-amide proton was monitored at 37° C. and 10° C. for 10 h. […] At 10° C. and below pH 8.6 the integrated signal from the trans-amide proton resonance is therefore a good measure of ^15N lipoamide concentration.

[2] = test system: P bodies, Cajal bodies, PML bodies, DNA damage foci, nucleolus; assay: Effect on other non-membrane bound compartments in HeLa GFP marker lines; assay type: cell-based
Experimental: FIG. 4A) Images of HeLa cells expressing Protein GFP markers of other non-membrane bound compartments subject to 1 h treatment with 10 μM compound (or DMSO control). Where unclear, the position of nuclei is indicated with a dotted outline. […] FIG. 4B) Recruitment of FUS GFP to sites of UV laser-induced DNA damage in iPS cells after 1 h treatment with compound followed by 1 h arsenate stress.
Stress granules are one of several, similar, cytoplasmic RNA-containing liquid-like compartments. […] Several stress granule proteins also form nuclear bodies: nuclear paraspeckles, and foci at the sites of DNA damage. There are also many other nuclear liquid-like compartments. It was then asked whether lipoamide also affected these other bodies, using a panel of cell lines expressing GFP fusions. For this analysis, mitoxantrone was included as a representative of the heterotri-/tetracyclic compound class of hits (FIG. 1F). An overly-broad effect on liquid-like compartments would likely cause side-effects for a therapeutic.
The action of lipoamide is therefore specific to the signaling and/or physical chemistry driving stress granule formation, stress granule phase separation, and/or a specific signaling route. Stress granules normally form and dissolve rapidly in comparison to many other compartments.

[3] = biological target: T1, FUS low complexity domain (residues 1 to 163) (Homo sapiens, UniProt P35637); assay: 1H-15N HSQC NMR of FUS low complexity domain with compound; assay type: binding; settings: 500 μM compound
T1 construct: untagged FUS low complexity domain (residues 1 to 163) expressed, purified and analysed; made in house
T1 sequence (P35637 1-163): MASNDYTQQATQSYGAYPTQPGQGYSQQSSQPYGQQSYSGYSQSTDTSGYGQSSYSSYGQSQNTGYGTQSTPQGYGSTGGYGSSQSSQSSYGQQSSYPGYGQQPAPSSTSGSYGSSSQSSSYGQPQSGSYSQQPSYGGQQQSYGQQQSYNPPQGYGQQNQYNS
Experimental: Finally, mechanistic detail was analyzed at the sub-molecular level by using NMR of the FUS prion-like N-terminal LCD to determine putative sites of lipoamide interaction. The LCD is able to phase separate to form condensates in vitro and the individual residues can be resolved and assigned in a ^1H-^15N heteronuclear single quantum coherence spectrum. ^1H-^15N analyses reveal a change in environment of individual residues as indicated by their corresponding chemical shifts. The magnitude of chemical shift changes were compared with and without both lipoamide or mitoxantrone. […] This leaves several possibilities: Perhaps lipoamide interacts with the FUS LCD only when phase separated, potentially reducing viscosity, or interacts with the condensate phase boundary, perhaps increasing surface tension. Such interactions may reduce formation or expansion of aggregated forms of FUS involved in condensate hardening and reduced liquidity.
For analysis of compound interaction with FUS untagged FUS low complexity domain (residues 1 to 163) expressed, purified and analysed using ^1H-^15N heteronuclear single quantum coherence NMR and sample conditions previously described^14 in the presence of 500 μM compound or equivalent DMSO solvent control (1%).

time over which signal intensity is stable ([1]; growth medium, 10° C.): > 10 h | trans-amide proton signal intensity over time ([1]; medium, 37° C., 10 h): decayed slowly | chemical shift changes of FUS LCD residues [3]: no single, clear sites of interaction
SMILES: NC(=O)CCCCC1CCSS1 (racemic) [lipoamide, 5-(1,2-dithiolan-3-yl)pentanamide]
disruption of P bodies (DCP1A), Cajal bodies (COIL), DNA damage foci (TRP53BP1), nucleolus (NCB1) ([2]; 1 h treatment with 10 μM compound): does not disrupt | localization of P-body, PML body and DNA damage focus proteins ([2]; conditions that would dissolve stress granules): did not affect the localization
